Reference: patent publication US8735387B2, “Oxazolopyrimidines as Edg-1 receptor agonists” (Sanofi, priority 2008, dated 2014)

Biological target: T1, human Edg-1 receptor (Homo sapiens, UniProt P21453)
T1 construct: expressed in transfected cells; membrane preparation
Test: GTP-γ-S assay using human Edg-1 receptors (scintillation proximity assay, membrane preparation from CHO Flp-In cell line)
Assay type: biochemical
Conditions: example compound at 10 μM; relative to 10 μM S1P; GTP-γ-S SPA, human Edg-1 membranes
Description: Determination of the Pharmacological Activity A) GTP-γ-S Assay Using Human Edg-1 Receptors
In order to determine the Edg-1 receptor activation by the compounds of the invention, a GTP-γ-S (guanosine 5′-[γ-thio]triphosphate) assay for G-protein coupled receptor binding based on the scintillation proximity assay principle was used, employing a cell membrane preparation from a CHO Flp-In cell line which constitutively overexpresses the human Edg-1 receptor.
The Flp-In™ expression system (Invitrogen, cat. no. K6010-01) allows the generation of stable mammalian cell lines into which the gene of interest has been integrated through homologous recombination at a specific genomic location called Flp Recombination Target (FRT) site by means of a Flp recombinase encoded by the pOG44 expression plasmid. The integration of the pcDNA5/FRT expression construct into the Flp-In host cell line genome results in the transcription of the gene of interest. The stably transfected cells become hygromycin-resistant.
One day prior to transfection, 200 000 Flp-In-CHO cells were seeded in Ham F-12 medium (Invitrogen, cat. no. 31765) supplemented with 10% fetal calf serum (FCS; Perbio Science, cat. no. SH30068.03) in a 6-well plate and incubated at 37° C./5% CO2 overnight. Using the FuGENE® 6 transfection reagent (Roche, cat. no. 11988387001), cells were cotransfected with the Flp recombinase expression plasmid pOG44 and a modified plasmid additionally containing the edg-1 gene (accession no. NM_001400) termed as pcDNA5-FRT-TO_nFLAG_DEST-EDG-1 with a 9:1 ratio. To obtain the modified pcDNA5-FRT-TO_nFLAG_DEST plasmid, the Invitrogen plasmid pcDNA5/FRT/TO (Invitrogen, cat. no. V6520-20) was adapted to the Gateway® (Invitrogen) cloning system by inserting a Gateway cassette containing attR recombination sites flanking a ccdB gene and a chloramphenicol-resistance gene (Gateway conversion system, Invitrogen, cat. no. 11828-029). In addition a FLAG tag epitope was added before the 5′ att recombination site to allow recombinant expression of N-terminally FLAG-tagged proteins.
For the transfection of one well, 1.08 μg of pOG44 and 0.12 μg of pcDNA5-FRT-TO_nFLAG_DEST-EDG-1 were mixed to 100 μl of serum-free Ham F-12 medium containing 6 μl of FuGENE® 6 transfection reagent. After 20 min of incubation, the transfection reagent/DNA complex was distributed dropwise on the cells. The cells were incubated for 24 h at 37° C. Then the cells from 3 wells each were transferred to a T75 flask (Greiner Cellstar®, cat. no. 658175) containing Ham F-12 medium supplemented with 10% of FCS but without antibiotic and were incubated another 24 h. 48 h after transfection, the medium was replaced by selection medium (Ham F-12 supplemented with 10% of FCS and 300 μg/ml of hygromycin B (Invitrogen, cat. no. 10687-010)). The medium was exchanged every 2 to 3 days until a resistant population of cells had grown. […] After 2 weeks of selection, the cells were transferred into T175 flasks (Greiner Cellstar®, cat. no. 660175) and cultivated for batch production. Cells were harvested from the culture flasks by short treatment (2 to 5 min) with Accutase (PAA, cat. no. L11-007), resuspended in selection medium (see above) and centrifuged at 200×g for 5 min. Cells were resuspended in a mixture of 90% of FCS and 10% of dimethylsulfoxide and stored frozen in liquid nitrogen.
A membrane preparation was obtained by standard methods from the afore-described CHO Flp-In cell line constitutively overexpressing the human Edg-1 receptor. Briefly, the cryopreserved cells were taken in culture and grown until confluency in T175 cell culture flasks (Becton Dickinson, cat. no. 35 5001). […]

T1 sequence (P21453 whole entry): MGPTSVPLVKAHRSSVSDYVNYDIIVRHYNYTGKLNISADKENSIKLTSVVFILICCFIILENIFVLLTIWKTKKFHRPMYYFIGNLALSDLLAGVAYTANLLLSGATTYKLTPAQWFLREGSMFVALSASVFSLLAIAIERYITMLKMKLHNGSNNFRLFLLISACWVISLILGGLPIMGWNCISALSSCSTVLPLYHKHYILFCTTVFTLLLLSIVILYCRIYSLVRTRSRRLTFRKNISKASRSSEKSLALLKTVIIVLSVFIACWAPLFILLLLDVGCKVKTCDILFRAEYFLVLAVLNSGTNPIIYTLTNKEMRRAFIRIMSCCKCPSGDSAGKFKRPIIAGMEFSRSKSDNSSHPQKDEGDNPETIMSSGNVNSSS

Row | SMILES | % Activation (Edg-1 receptor activation in percent of the activation by 10 μM S1P) [%]
1 | CCCOc1nc(CN2CCCOCC2)nc2oc(-c3ccc(Cl)c(F)c3)nc12 [Example 91] | 96
2 | CCCOc1nc(CN2CCCOCC2)nc2oc(-c3ccc(OC)c(F)c3)nc12 [Example 92] | 106
3 | CCCOc1nc(CN2CCC(F)(F)CC2)nc2oc(-c3ccc(OC)c(F)c3)nc12 [Example 93] | 103
4 | CCCOc1nc(CN2CCC(C(F)(F)F)CC2)nc2oc(-c3cccc(F)c3)nc12 [Example 94] | 82
5 | CCCOc1nc(CN2CCCC2(F)F)nc2oc(-c3cccc(F)c3)nc12 [Example 95] | 105
6 | CCCOc1nc(CN2CCC(F)(F)CC2)nc2oc(-c3ccco3)nc12 [Example 96] | 121
7 | CCCOc1nc(CN2CCCOCC2)nc2oc(-c3ccco3)nc12 [Example 97] | 100
8 | CCCOc1nc(CN2CCC(F)(F)CC2)nc2oc(-c3ccc(Br)o3)nc12 [Example 98] | 120
9 | CCCOc1nc(CN2CCCOCC2)nc2oc(-c3ccc(Br)o3)nc12 [Example 99] | 117
10 | CCCOc1nc(Cc2ccc(Cl)cc2)nc2oc(-c3ccco3)nc12 [Example 102] | 65
11 | CCCOc1nc(Cc2ccc(Cl)cc2)nc2oc(-c3cccs3)nc12 [Example 103] | 85
12 | Clc1ccc(Cc2nc(OC3CCCC3)c3nc(-c4ccco4)oc3n2)cc1 [Example 110] | 61
13 | CCCCOc1nc(Cc2ccc(Cl)cc2)nc2oc(-c3ccco3)nc12 [Example 111] | 57
14 | Fc1cccc(-c2nc3c(OC4CCCC4)nc(Cc4ccc(Cl)cc4)nc3o2)c1 [Example 112] | 66
15 | Cc1ccc(-c2nc3c(OC4CCCC4)nc(Cc4ccc(Cl)cc4)nc3o2)cc1 [Example 113] | 41
16 | Clc1ccc(Cc2nc(OC3CCCC3)c3nc(-c4cccs4)oc3n2)cc1 [Example 114] | 83
17 | CCCCOc1nc(Cc2ccc(Cl)cc2)nc2oc(-c3cccs3)nc12 [Example 115] | 33
18 | C#CCOc1nc(Cc2ccc(Cl)cc2)nc2oc(-c3cccnc3)nc12 [Example 123] | 47
19 | C=C(C)COc1nc(Cc2ccc(Cl)cc2)nc2oc(-c3cccnc3)nc12 [Example 124] | 94
20 | C=CCOc1nc(Cc2ccc(Cl)cc2)nc2oc(-c3cccnc3)nc12 [Example 127] | 73
21 | CCCOc1nc(Cc2ccc(Cl)cc2)nc2oc(-c3cc(F)ccc3F)nc12 [Example 131] | 116
22 | CCCOc1nc(Cn2c(=O)n(C)c3ccccc32)nc2oc(-c3cccc(F)c3)nc12 [Example 133] | 127
23 | CCCOc1nc(CN2CCC(=O)C(C(=O)OC)C2)nc2oc(-c3cccc(F)c3)nc12 (stereo not drawn) [Example 134] | 78
24 | CCCOc1nc(Cc2ccc(Cl)cc2)nc2oc(-c3cc(N)ccc3F)nc12 [Example 135] | 117
25 | CCCOc1nc(Cc2ccc(Cl)cc2)nc2oc(-c3cc(C(F)(F)F)cc(C(F)(F)F)c3)nc12 [Example 138] | 52

The next lines start with the values.

Row | % Activation (Edg-1 receptor activation in percent of the activation by 10 μM S1P) [%] | SMILES
26 | 88 | CCCOc1nc(Cc2ccc(Cl)cc2)nc2oc(-c3ccc(C)cc3)nc12 [Example 100]
27 | 91 | CCCOc1nc(Cc2ccc(Cl)cc2)nc2oc(-c3cccc(C)c3)nc12 [Example 101]
28 | 87 | Fc1cccc(-c2nc3c(OCC4CC4)nc(Cc4ccc(Cl)cc4)nc3o2)c1 [Example 104]
29 | 22 | Cc1cccc(-c2nc3c(OCCC(C)C)nc(Cc4ccc(Cl)cc4)nc3o2)c1 [Example 106]
30 | 73 | Cc1cccc(-c2nc3c(OC4CCCC4)nc(Cc4ccc(Cl)cc4)nc3o2)c1 [Example 107]
31 | 31 | CCCCOc1nc(Cc2ccc(Cl)cc2)nc2oc(-c3cccc(C)c3)nc12 [Example 108]
32 | 61 | C#CCOc1nc(Cc2ccc(Cl)cc2)nc2oc(-c3cccc(C)c3)nc12 [Example 109]
33 | 136 | C=CCOc1nc(Cc2ccc(Cl)cc2)nc2oc(-c3cccc(C)c3)nc12 [Example 116]
34 | 101 | CCOc1nc(Cc2ccc(Cl)cc2)nc2oc(-c3cccc(C)c3)nc12 [Example 117]
35 | 103 | Cc1cccc(-c2nc3c(OCCF)nc(Cc4ccc(Cl)cc4)nc3o2)c1 [Example 118]
36 | 80 | C=C(C)COc1nc(Cc2ccc(Cl)cc2)nc2oc(-c3cccc(C)c3)nc12 [Example 119]
37 | 107 | Cc1cccc(-c2nc3c(OCCCF)nc(Cc4ccc(Cl)cc4)nc3o2)c1 [Example 120]
38 | 99 | C=CCCOc1nc(Cc2ccc(Cl)cc2)nc2oc(-c3cccc(C)c3)nc12 [Example 121]
39 | 103 | CCCOc1nc(Cc2ccc(Cl)cc2)nc2oc(-c3cccnc3)nc12 [Example 122]
40 | 112 | FCCCOc1nc(Cc2ccc(Cl)cc2)nc2oc(-c3cccnc3)nc12 [Example 125]
41 | 105 | FCCCOc1nc(Cc2ccc(Cl)cc2)nc2oc(-c3cccnc3)nc12 [Example 126]
42 | 110 | CCOc1nc(Cc2ccc(Cl)cc2)nc2oc(-c3cccnc3)nc12 [Example 128]
43 | 108 | CCCOc1nc(Cc2ccc(Cl)cc2)nc2oc(-c3cccc(OC)c3)nc12 [Example 129]
44 | 78 | CCCOc1nc(Cc2ccc(Cl)cc2)nc2oc(-c3cccc(Cl)c3)nc12 [Example 130]
45 | 71 | CCCOc1nc(Cc2ccc(Cl)cc2)nc2oc(-c3ccc(F)c(F)c3)nc12 [Example 132]
46 | 73 | CCCOc1nc(Cc2ccc(C)cc2)nc2oc(-c3cccc(F)c3)nc12 [Example 136]
47 | 55 | CCCOc1nc(Cc2ccc(Cl)cc2)nc2oc(-c3cccc(N(C)C)c3)nc12 [Example 137]

Same assay, conditions: example compound at 10 μM; relative to 10 μM S1P; GTP-γ-S SPA, human Edg-1 membranes; read-out: % Activation (Edg-1 receptor activation in percent of the activation by 10 μM S1P)

Row | activation at 10 µM [%] | SMILES
48 | 81 | Cc1cccc(-c2nc3c(OCC4CC4)nc(Cc4ccc(Cl)cc4)nc3o2)c1 [Example 105, 5-(4-chloro-benzyl)-7-cyclopropylmethoxy-2-(3-methyl-phenyl)-oxazolo[5,4-d]pyrimidine]
